{"source": "patent US5591773A", "about": "“Inhibition of cataract formation, diseases resulting from oxidative stress, and HIV replication by caffeic acid esters” (priority 1994, dated 1997)", "key": {"[1]": {"tested_on": "8-OHdGua in epidermal DNA", "experiment": "TPA-induced 8-OHdGua formation in epidermal DNA of SENCAR mice", "format": "in vivo", "experimental": "FIGS. 2A-2D. CAPE-mediated inhibition of TPA-induced oxidative processes in SENCAR mice. Mice were topically treated with 6.5 nmol CAPE 30 min prior to 6.5 nmol TPA, and this regimen was repeated 20 h later. Mice were sacrificed 1 h after the last treatment and the skin removed for determination of: (FIG. 2A) PMN infiltration (by measuring myeloperoxidase (MPO)); (FIG. 2B) H2 O2; (FIG. 2C) HMdUrd (HMdU); and (FIG. 2D) 8-OHdGua (8-OHdG), according to procedures described in the \"Experimental Details\" Section, infra. .quadrature., controls treated with acetone in place of CAPE and TPA; , treatment with acetone followed by TPA; .box-solid., treatment with CAPE followed by TPA. Results are expressed as mean ± SE (bars) from two experiments (2 mice/experiment) in the CAPE series. Data for acetone (ACT)- and TPA-treated mean values were collected from over 20 experiments.\nC) MPO, H2 O2, and Oxidized DNA Bases. SENCAR mice were pretreated with CAPE for 30 min; then 6.5 nmol (4 μg) TPA/mouse topically applied to the dorsal skin. After 20 h, the CAPE and TPA treatment (1x) was repeated (2x treatment). One h after the second treatment, the mice were sacrificed by cervical dislocation, and 12.5-mm punches were obtained to be used separately for MPO and H2 O2 determinations. The remainder of the treated mouse skin or the combined skins from two mice were used for separation of epidermal cells. This was done by heating the skin at 55° C. for 30 s followed by rapid immersion into an ice-cold water bath (45). After the epidermis was scraped off, the presence of oxidized DNA base derivatives was measured in the epidermal DNA. All of these end points were analyzed by published procedures and are briefly described below.\nThe epidermis was homogenized and lysed, and the proteins and RNA were removed by proteinase K and RNase digestions, respectively (20). The DNA was separated and purified on A.S.A.P. columns (Boehringer-Mannheim Biochemicals) and precipitated with isopropyl alcohol.\nThe pellet was then washed with 70% ethyl alcohol, dried, and dissolved in 10 mM Tris.cndot.HCl-100 mM NaCl buffer, pH 7.0, according to the manufacturer's procedure. The DNA was sheared and enzymatically digested to nucleosides, and the hydrolysates were separated by HPLC (Beckman, Model 344) on an ODS column (Altex, 1×25 cm; 5 μm particle size) (50). The fractions that eluted after 30 ml were combined (excluding those containing normal nucleosides) and dried. The oxidized nucleosides were detected by ^3 H-postlabeling with [^3 H]acetic anhydride, followed by HPLC analysis of ^3 H-containing acetates in the presence of marker acetates (50). The results are presented as the number of oxidized nucleosides/10^4 normal bases, unless otherwise stated.\n^a Mice were treated as described in the legend to FIG. 2, except tha"}, "[2]": {"tested_on": "TPA-induced cataracts in eyes of rabbits", "experiment": "TPA-induced cataracts in rabbits in vivo", "design": "species or system white New Zealand rabbits", "settings": "for cataract appearance, rabbit No. 5 (in words): conclusion of the experiment; for cataract appearance, other test animals (in words): rabbit, in vivo", "experimental": "B) Test animals. Six healthy young (6-8 weeks old) white New Zealand rabbits of both sexes were used for the experiments. Each animal had normal eyes as confirmed by ocular examination by slit lamp.\nC) Treatment of animals and monitoring the eye alterations. Cataracts were induced by the direct application of both TPA and CAPE into the eye chamber. On every third day, 0.05 ml of the TPA solution (200 μg/ml PBS) was injected into the anterior chamber of both eyes via a puncture at the corneo-scleral limbus with a fine 0.3×42 mm needle joined to a tuberculin syringe. The animals were all given local anesthesia with HUMACAIN eye drops (human, Godollo, Hungary) under sterile conditions for each application. One hour after TPA was injected, 0.05 ml of the CAPE solution (50 μg/ml) was administered into the anterior chamber of only the left eye, as above. The right eye of each animal received no further treatment. This procedure was repeated a total of 16 times. Periodic ocular examinations by slit lamp were performed after the 6th, 12th, and final drug applications. Subsequently, examinations were made on the 10th and 23rd days after the last drug treatment. After each ocular examination, the physical findings were recorded and photodocumentation of the eye changes were performed. The photographic documentary was executed in the following manner. Firstly, lenses were illuminated by a fiber optic light source from behind and photographs were taken from a distance of 5-6 cm. The diapositive black and white images on paper were transferred into an IBM personal computer (system 2, model 30) using a Sony-2-Cue CCD video camera that was equipped with Fujinon TV zoom objective (1:1.8) via a 17.5-105 signal-transfer system. Finally, with these computer image reconstructions, the areas of the lens opacifications were delineated and quantified using the Olympus image analyzer C-2 morphometry version 2.2 program."}, "[3]": {"tested_on": "bovine lens (H2O2)", "experiment": "H2O2 formation in bovine lens", "format": "cell-based", "settings": "for H2O2 / increase in H2O2 concentration over control lenses: 24 h; for H2O2: mean of 3 ± SE", "experimental": "B) Bovine Lens Bovine lenses were obtained from a New Jersey slaughterhouse 3 h after the animals were sacrificed. Lenses were immediately immersed in artificial aqueous humor (AAH; 130 mMNaCl, 5 mMKCl, 1 mM CaCl2, 0.5 mM MgCl2, 10 mM NaHCO3, 10 mM 4-(2-hydroxyethyl)-1-piperazineethanesulfonic acid (pH 7.3), and 2.5 mM D-glucose). Each of the bovine lenses in AAH (about 15 ml/lens) supplemented with 10 mM azide (a catalase inhibitor) was incubated with various amounts (0-1 μM) TPA at 37° C. for 24 h in the presence or absence of CAPE (1 μM), as described for use of other chemopreventive agents (31). For comparison, the lenses were also incubated with glucose (2.5 mM)/glucose oxidase (25 μM), a H2 O2 -generating system.\nAfter incubation, lenses were homogenized in 15 ml of azide-supplemented AAH in a Waring Blender, and H2 O2 content was determined spectrofluorometrically, as described previously (55). Briefly, the homogenates were incubated with 2',7'-dichlorofluorescin diacetate, which is deacetylated by the esterase present in the homogenate. In the presence of HRPO, the nonfluorescent substrate was oxidized by H2 O2 generated in the lens to a highly fluorescent product, which was measured at excitation 475 nm and emission 525 nm (30, 31, 55). The amount of H2 O2 generated was determined from a standard curve, which was constructed by addition of increasing concentrations of H2 O2 to a homogenate derived from a control lens incubated only in AAH."}, "[4]": {"settings": "CAPE 6.5 nmol, TPA 6.5 nmol, 2x"}}, "note": "Values joined by “and” are separate entries in the source; they are usually repeats but may differ in a detail not shown here. Equal entries are not always repeated. “Also recorded” adds a separate entry of the source."}
{"molecule": "CCCCCCCCCCCCCC(=O)O[C@@H]1[C@@H](C)[C@@]2(O)[C@@H](C=C(CO)C[C@]3(O)C(=O)C(C)=C[C@@H]23)[C@@H]2C(C)(C)[C@]12OC(C)=O", "note": "[TPA, 12-O-tetradecanoylphorbol-13-acetate]", "values": [{"measurement": "8-OHdGua/10^5 bases", "setting": "[1]; TPA alone, 6.5 nmol, SE 6.3 on next line", "result": "11.8 /10^5 bases"}, {"measurement": "Size of cataract, Control (TPA-treated right eye)", "setting": "[2]; TPA 0.05 ml of 200 μg/ml into anterior chamber every third day, 16 times, one line per animal", "result": "63.139 relative units and 14.704 relative units and 104.97 relative units and 111.62 relative units and 99.923 relative units and 28.578 relative units"}, {"measurement": "induction of cataracts in live rabbits (in words)", "setting": "[2]; TPA injected into anterior chamber", "result": "Cataracts of various sizes and types were evident by ocular examination in both eyes starting after the 12th TPA injection; also recorded: potent inducer of cataracts in the eyes of live rabbits"}, {"measurement": "cataract appearance, rabbit No. 5 (in words)", "setting": "[2]", "result": "a rather large arched subcortical condensed immature but developing cataract is evident"}, {"measurement": "cataract appearance, other test animals (in words)", "setting": "[2]", "result": "larger, more mature cataracts that had spread deeply into the nuclear region"}, {"measurement": "H2O2, % of change from control", "setting": "[3]; 0.01 μM TPA", "result": 95, "unit": "%"}, {"measurement": "H2O2", "setting": "[3]; 0.01 μM TPA", "result": "11.3 ± 0.2", "unit": "µM"}, {"measurement": "H2O2, % of change from control", "setting": "[3]; 0.05 μM TPA", "result": 200, "unit": "%"}, {"measurement": "increase in H2O2 concentration over control lenses", "setting": "[3]; 0.05 μM TPA", "result": "about 2 fold"}, {"measurement": "H2O2", "setting": "[3]; 0.05 μM TPA", "result": "23.3 ± 1.3", "unit": "µM"}, {"measurement": "H2O2, % of change from control", "setting": "[3]; 0.10 μM TPA", "result": 360, "unit": "%"}, {"measurement": "increase in H2O2 concentration over control lenses", "setting": "[3]; 0.1 μM TPA", "result": "~3.5", "unit": "fold"}, {"measurement": "H2O2", "setting": "[3]; 0.10 μM TPA", "result": "42.7 ± 1.6", "unit": "µM"}, {"measurement": "H2O2, % of change from control", "setting": "[3]; 1.0 μM TPA", "result": 705, "unit": "%"}, {"measurement": "increase in H2O2 concentration over control lenses", "setting": "[3]; 1.0 μM TPA", "result": "~7", "unit": "fold"}, {"measurement": "H2O2", "setting": "[3]; 1.0 μM TPA", "result": "83.8 ± 5.6", "unit": "µM"}]}
{"molecule": "O=C(/C=C/c1ccc(O)c(O)c1)OCCc1ccccc1", "note": "[CAPE, Caffeic acid phenethyl ester]", "values": [{"measurement": "8-OHdGua/10^5 bases", "setting": "[1]; CAPE 6.5 nmol then TPA 6.5 nmol, 2x, (2 experiments), SE 0.8 on next line", "result": "1.4 /10^5 bases"}, {"measurement": "8-OHdGua suppression below acetone controls (basal levels)", "setting": "[1]; [4]", "result": 70, "unit": "%"}, {"measurement": "decline of 8-OHdGua formation", "setting": "[1]; [4]", "result": "~170", "unit": "%"}, {"measurement": "8-OHdGua/10^5 bases", "setting": "[1]; CAPE 650 nmol then TPA 6.5 nmol, 2x, (2 experiments), SE 1.1 on next line", "result": "9.4 /10^5 bases"}, {"measurement": "inhibition of inflammatory processes, particularly oxidation of bases in DNA (in words)", "setting": "[1]; compared with untreated blanks", "result": "down to the background levels represented by untreated blanks"}, {"measurement": "area of TPA-induced cataracts larger in eye without CAPE than in CAPE-injected eye", "setting": "[2]; 5 of 6 animals", "result": "2.2-44.2 times"}, {"measurement": "Size of cataract, CAPE (TPA + CAPE treated left eye)", "setting": "[2]; CAPE 0.05 ml of 50 μg/ml 1 h after TPA, 16 times, one line per animal", "result": "1.428 relative units and 6.739 relative units and 10.77 relative units and 28.722 relative units and 30.199 relative units and 43.184 relative units"}, {"measurement": "cataract appearance, rabbit No. 5 (in words)", "setting": "[2]", "result": "a small capsular-subcapsular immature cataract is evident"}, {"measurement": "Size of cataract, % of Control", "setting": "[2]; left (TPA + CAPE) vs right (TPA) eye of the same animal, one line per animal", "result": "2.25% and 45.83% and 10.26% and 25.73% and 30.22% and 151.11%"}, {"measurement": "lens appearance, effect of CAPE (in words)", "setting": "[2]; left eye, intracameral CAPE after TPA", "result": "significantly clearer; also recorded: produced a prophylactic effect on incipient cataracts; also recorded: significantly reduced the pathological effects of this phorbol ester"}, {"measurement": "cataract appearance, other test animals (in words)", "setting": "[2]", "result": "generally smaller and more immature"}, {"measurement": "animals with smaller cataract in CAPE-treated eye", "setting": "[2]; rabbits, termination of the experiment", "result": "5 out of the 6"}, {"measurement": "H2O2", "setting": "[3]; 1 μM CAPE 30 min then 0.1 μM TPA", "result": "13.1 ± 1.3", "unit": "µM"}, {"measurement": "H2O2, % of change from control", "setting": "[3]; 1 μM CAPE/0.1 μM TPA", "result": 110, "unit": "%"}, {"measurement": "inhibition at 1 µM", "setting": "[3]; Bos taurus, 1 μM CAPE 30 min, then 0.1 μM TPA 24 h, read-out: decline in TPA-induced H2O2 production", "result": "~95", "unit": "%"}]}
